Changes are numbered by the printed parent chain. Several values for one entry are separate records, joined by “and”; a condition that tells them apart may be missing. Equal values may be shown once.
How the values were obtained:
hTA1 C178S = biological target: T1, hTA1 C178S (Homo sapiens, UniProt Q96RJ0, C178S); assay: GloSensor cAMP accumulation assay, C178S mutant; type: cell-based; settings: log[Compound], single replicates
T1 construct: expressed in transfected cells; host or cells: HEK293T
T1 sequence (Q96RJ0 1-339 C178S): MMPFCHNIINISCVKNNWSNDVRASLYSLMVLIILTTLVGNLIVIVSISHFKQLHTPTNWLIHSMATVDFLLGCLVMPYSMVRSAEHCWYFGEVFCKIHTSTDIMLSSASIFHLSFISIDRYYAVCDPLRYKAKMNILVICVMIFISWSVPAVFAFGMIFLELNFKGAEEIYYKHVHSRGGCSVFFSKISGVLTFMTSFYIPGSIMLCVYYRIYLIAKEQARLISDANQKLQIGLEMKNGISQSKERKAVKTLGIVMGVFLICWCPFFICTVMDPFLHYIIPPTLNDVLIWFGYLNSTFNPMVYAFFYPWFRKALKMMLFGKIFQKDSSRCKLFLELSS

hTA1 V184P = biological target: T2, hTA1 V184P (Homo sapiens, UniProt Q96RJ0, V184P); assay: GloSensor cAMP accumulation assay, V184P mutant; type: cell-based; settings: for cAMP accumulation response, single replicate values (source data, Supplementary Figure 5): hTA1 V184P (N=2), log[Compound]
T2 construct: expressed in transfected cells; host or cells: HEK293T
T2 sequence (Q96RJ0 1-339 V184P): T1 sequence (Q96RJ0 1-339 C178S) with S178C, V184P

[1] = hTA1 V184P mutant minus WT average

SMILES: NCCc1ccccc1 [β-PEA, β-phenethylamine]
- C178S - Normalized Luminescence Counts (N=2) (hTA1 C178S; M = -6.522): 93.1473 and 96.0445 and 75.0162 and 77.2154 and 68.719 and 87.1478
- C178S - Normalized Luminescence Counts (N=2) (hTA1 C178S; M = -7): 68.3806 and 62.1189 and 51.4645 and 64.3212 and 56.124 and 61.3594
- C178S - Normalized Luminescence Counts (N=2) (hTA1 C178S; M = -7.522): 36.8382 and 29.782 and 30.7166 and 32.2204 and 27.7927 and 32.0708
- C178S - Normalized Luminescence Counts (N=2) (hTA1 C178S; M = -8): 16.2772 and 19.3614 and 14.922 and 22.976 and 17.1422 and 19.9245
- C178S - Normalized Luminescence Counts (N=2) (hTA1 C178S; M = -8.522): 3.333 and 3.193 and 2.959 and 9.783 and 5.445 and 7.24
- C178S - Normalized Luminescence Counts (N=2) (hTA1 C178S; M = -9): 1.604 and 3.099 and 1.838 and 2.393 and 2.184 and 1.825
- C178S - Normalized Luminescence Counts (N=2) (hTA1 C178S; M = -9.522): 0.7163 and 0.2957 and -0.07812 and 1.615 and 0.2691 and 1.107
- C178S - Normalized Luminescence Counts (N=2) (hTA1 C178S; M = -10): 1.791 and 0.9967 and 1.277 and -3.171 and -1.3464 and -0.5985
- C178S - Normalized Luminescence Counts (N=2) (hTA1 C178S; M = -10.522): -0.5454 and 0.763 and 0.06206 and -2.244 and -1.825 and -1.7054
- C178S - Normalized Luminescence Counts (N=2) (hTA1 C178S; M = -11): 0.1088 and 0.5294 and -0.07812 and 0.3289 and 0.7777 and -1.376
- C178S - Normalized Luminescence Counts (N=2) (hTA1 C178S; M = -11.522): 1.37 and -0.1716 and -0.2183 and -0.6583 and -1.287 and 0.3289
- C178S - Normalized Luminescence Counts (N=2) (hTA1 C178S; M = -12): -0.7791 and 0.2957 and -0.265 and -2.932 and -0.03006 and 1.645
- C178S - Normalized Luminescence Counts (N=2) (hTA1 C178S; M = -12.522): -0.452 and -1.34 and -0.6856 and -1.915 and -0.9575 and -0.4489
- reduction in potency vs wild type (hTA1 V184P; V184P): 3 fold
- Span ± SEM (Emax normalized to β-PEA) (hTA1 V184P; V184P, n=2): 100 ± 1.96
- pEC50 ± SEM (hTA1 V184P; V184P, n=2): 6.49 ± 0.04
- EC50 (hTA1 V184P; V184P, n=2, read-out: EC50): 321 nM
- cAMP accumulation response, single replicate values (source data, Supplementary Figure 5) (hTA1 V184P; M = -5): 83.3536 and 92.5674 and 99.6475 and 104.399 and 96.8854 and 100.441
- cAMP accumulation response, single replicate values (source data, Supplementary Figure 5) (hTA1 V184P; M = -5.522): 95.962 and 88.397 and 84.7115 and 96.8487 and 73.2445 and 97.875
- cAMP accumulation response, single replicate values (source data, Supplementary Figure 5) (hTA1 V184P; M = -6): 78.5043 and 69.7754 and 70.1634 and 94.7595 and 71.9984 and 76.7632
- cAMP accumulation response, single replicate values (source data, Supplementary Figure 5) (hTA1 V184P; M = -6.522): 42.813 and 37.5757 and 33.5992 and 65.1077 and 56.2745 and 55.2115
- cAMP accumulation response, single replicate values (source data, Supplementary Figure 5) (hTA1 V184P; M = -7): 14.3957 and 16.7234 and 14.2987 and 30.7277 and 25.9995 and 32.4504
- cAMP accumulation response, single replicate values (source data, Supplementary Figure 5) (hTA1 V184P; M = -7.522): 8.4795 and 4.503 and 3.727 and 12.5114 and 6.1339 and 9.909
- cAMP accumulation response, single replicate values (source data, Supplementary Figure 5) (hTA1 V184P; M = -8): 2.078 and 0.1386 and 0.7205 and 5.731 and 6.5 and 4.265
- cAMP accumulation response, single replicate values (source data, Supplementary Figure 5) (hTA1 V184P; M = -8.522): 1.496 and -0.05538 and 0.3326 and 2.249 and 1.809 and 2.505
- cAMP accumulation response, single replicate values (source data, Supplementary Figure 5) (hTA1 V184P; M = -9): 1.011 and 0.1386 (2×) and 2.652 and -0.3902 and 1.626
- cAMP accumulation response, single replicate values (source data, Supplementary Figure 5) (hTA1 V184P; M = -9.522): 0.7205 and -0.2494 and 0.4296 and -0.02371 and -1.123 and -0.1703
- cAMP accumulation response, single replicate values (source data, Supplementary Figure 5) (hTA1 V184P; M = -10): 1.205 and -0.05538 and 0.3326 and -0.207 and -0.5002 and 0.4161
- cAMP accumulation response, single replicate values (source data, Supplementary Figure 5) (hTA1 V184P; M = -10.522): 0.8175 and 0.6235 and -0.1524 and -0.3169 and -1.27 and -0.6101
- cAMP accumulation response, single replicate values (source data, Supplementary Figure 5) (hTA1 V184P; M = -11): 0.04161 and -0.4433 and -0.1524 and 0.5261 and 0.1229 and -0.4269
- cAMP accumulation response, single replicate values (source data, Supplementary Figure 5) (hTA1 V184P; M = -11.522): 1.205 and 0.1386 and 0.2356 and 0.7826 and 0.5261 and 0.3062
- cAMP accumulation response, single replicate values (source data, Supplementary Figure 5) (hTA1 V184P; M = -12): 0.8175 (3×) and -0.3902 and -0.5735 and 0.0496
- cAMP accumulation response, single replicate values (source data, Supplementary Figure 5) (hTA1 V184P; M = -12.522): 2.175 and 1.496 and 1.205 and 0.08625 and 0.1962 and -0.7201
- ΔEmax values (each mutant value - WT average), Mean (hTA1 V184P; [1]): 0
- ΔpEC50 values (each mutant value - WT average), Mean (hTA1 V184P; [1]): -0.7478 and -0.4527
- pEC50 values, Mean (hTA1 V184P; hTA1 V184P mutant, Figure 3B source data, each grid row a separate experiment, 3 replicates): 6.346 and 6.641
- Emax values, Mean (hTA1 V184P; hTA1 V184P mutant, β-PEA set to 100, each grid row a separate experiment, 3 replicates): 100
